IC50 data for 28 compounds are collected here from patent US10100058B2, “Fused heterocyclic compounds as CaM kinase inhibitors” (Gilead Sciences, Inc., priority 2016, dated 2018).

Molecules are shown by their SMILES.

In this test the target is recombinant CaMKIIδ (Homo sapiens (Human), UniProt Q13557). The test is described as follows: CaMKIIδ biochemical assay (HTRF). The conditions noted are these: 10 pM CaMKIIδ, 110 nM calmodulin, 12 μM ATP, 1 hour; read-out: CAMKIID-HTRF-384V2 (IC50 - nM). The procedure:
CaMKIIδ Biochemical Assay
The biochemical activity of recombinant CaMKIIδ was measured by monitoring the phosphorylation of a target peptide using Homogenous Time Resolved Fluorescence (HTRF) technology from CisBio Bioassays.
(In general: Time-resolved FRET reads energy transfer from a long-lived donor to a nearby acceptor.)
`COC1CN(c2cc(C(=O)NCC3(N)CCC3)cc(-c3cnn4ccc(-c5cccs5)nc34)n2)C1` [Example 170, N-((1-aminocyclobutyl)methyl)-2-(3-methoxyazetidin-1-yl)-6-(5-(thiophen-2-yl)pyrazolo[1,5-a]pyrimidin-3-yl)isonicotinamide]: the IC50 was found to be 19.9 nM.
Under `COC1CN(c2cc(C(=O)NC[C@H](C)N)cc(-c3cnn4ccc(-c5cccs5)nc34)n2)C1` [Example 171, (S)—N-(2-aminopropyl)-2-(3-methoxyazetidin-1-yl)-6-(5-(thiophen-2-yl)pyrazolo[1,5-a]pyrimidin-3-yl)isonicotinamide] stands 18.8 nM.
In the case of `COC1CN(c2cc(C(=O)NC[C@H](C)N)cc(-c3cnn4ccc(-c5ccccc5)nc34)n2)C1` [Example 172, (S)—N-(2-aminopropyl)-2-(3-methoxyazetidin-1-yl)-6-(5-phenylpyrazolo[1,5-a]pyrimidin-3-yl)isonicotinamide], the IC50 is 85.3 nM.
Consider `CCN[C@@H](C)CNC(=O)c1cc(-c2cnn3ccc(-c4cccs4)nc23)nc(N2CC(OC)C2)c1` [Example 173, (S)—N-(2-(ethylamino)propyl)-2-(3-methoxyazetidin-1-yl)-6-(5-(thiophen-2-yl)pyrazolo[1,5-a]pyrimidin-3-yl)isonicotinamide], for which the IC50 stood at 13 nM.
The same measure for `CCN[C@@H](C)CNC(=O)c1cc(-c2cnn3ccc(-c4ccccc4)nc23)nc(N2CC(OC)C2)c1` [Example 174, (S)—N-(2-(ethylamino)propyl)-2-(3-methoxyazetidin-1-yl)-6-(5-phenylpyrazolo[1,5-a]pyrimidin-3-yl)isonicotinamide]: 35.2 nM; for `CCN(CC)[C@@H](C)CNC(=O)c1cc(-c2cnn3ccc(-c4ccns4)nc23)nc(N2CC(OC)C2)c1` [Example 176, (S)—N-(2-(diethylamino)propyl)-2-(5-(isothiazol-5-yl)pyrazolo[1,5-a]pyrimidin-3-yl)-6-(3-methoxyazetidin-1-yl)isonicotinamide]: 0.29 nM.
Under `CCN(CC)[C@@H](C)CNC(=O)c1cc(-c2cnn3ccc(-c4cccs4)nc23)nc(N(C)S(C)(=O)=O)c1` [Example 177, (S)—N-(2-(diethylamino)propyl)-2-((N-methylmethyl)sulfonamido)-6-(5-(thiophen-2-yl)pyrazolo[1,5-a]pyrimidin-3-yl)isonicotinamide] stands 0.8 nM; under `CCN(CC)[C@@H](C)CNC(=O)c1cc(NS(=O)(=O)C(C)C)nc(-c2cnn3ccc(-c4cccs4)nc23)c1` [Example 178, (S)—N-(2-(diethylamino)propyl)-2-((1-methylethyl)sulfonamido)-6-(5-(thiophen-2-yl)pyrazolo[1,5-a]pyrimidin-3-yl)isonicotinamide], 1.25 nM.
Under `CCN(CC)[C@@H](C)CNC(=O)c1cc(NS(=O)(=O)CC)nc(-c2cnn3ccc(-c4cccs4)nc23)c1` [Example 179, (S)—N-(2-(diethylamino)propyl)-2-(ethylsulfonamido)-6-(5-(thiophen-2-yl)pyrazolo[1,5-a]pyrimidin-3-yl)isonicotinamide] stands 0.72 nM.
As to `CCN(CC)[C@@H](C)CNC(=O)c1cc(NS(=O)(=O)C2CC2)nc(-c2cnn3ccc(-c4cccs4)nc23)c1` [Example 180, (S)-2-(cyclopropanesulfonamido)-N-(2-(diethylamino)propyl)-6-(5-(thiophen-2-yl)pyrazolo[1,5-a]pyrimidin-3-yl)isonicotinamide], the IC50 is 0.47 nM.
`CCN(CC)[C@@H](C)CNC(=O)c1cc(NS(C)(=O)=O)nc(-c2cnn3ccc(-c4cccs4)nc23)c1` [Example 181, (S)—N-(2-(diethylamino)propyl)-2-(methylsulfonamido)-6-(5-(thiophen-2-yl)pyrazolo[1,5-a]pyrimidin-3-yl)isonicotinamide]: the half-inhibitory concentration (IC50) amounted to 0.64 nM.
Regarding `CCN(CC)[C@@H](C)CNC(=O)c1cc(-c2cnn3ccc(-c4cccs4)nc23)nc(N2CC(NS(=O)(=O)CC)C2)c1` [Example 182, (S)—N-(2-(diethylamino)propyl)-2-(3-(ethylsulfonamido)azetidin-1-yl)-6-(5-(thiophen-2-yl)pyrazolo[1,5-a]pyrimidin-3-yl)isonicotinamide], the IC50 was determined as 0.16 nM.
Under `CCN(CC)[C@@H](C)CNC(=O)c1cc(-c2cnn3ccc(-c4cccs4)nc23)nc(N2CC(NS(=O)(=O)C(C)C)C2)c1` [Example 183, (S)—N-(2-(diethylamino)propyl)-2-(3-((1-methylethyl)sulfonamido)azetidin-1-yl)-6-(5-(thiophen-2-yl)pyrazolo[1,5-a]pyrimidin-3-yl)isonicotinamide] stands 0.26 nM.
Consider `CCN(CC)[C@@H](C)CNC(=O)c1cc(-c2cnn3ccc(-c4cccs4)nc23)nc(N2CCNC2=O)c1` [Example 184, (S)—N-(2-(diethylamino)propyl)-2-(2-oxoimidazolidin-1-yl)-6-(5-(thiophen-2-yl)pyrazolo[1,5-a]pyrimidin-3-yl)isonicotinamide], for which the IC50 is 1.16 nM.
On to `CCNC(=O)Nc1cc(C(=O)NC[C@H](C)N(CC)CC)cc(-c2cnn3ccc(-c4cccs4)nc23)n1` [Example 185, (S)—N-(2-(diethylamino)propyl)-2-(3-ethylureido)-6-(5-(thiophen-2-yl)pyrazolo[1,5-a]pyrimidin-3-yl)isonicotinamide], for which the 50% inhibitory concentration (IC50) was 0.11 nM.
The same measure for `CCOC(=O)Nc1cc(C(=O)NC[C@H](C)N(CC)CC)cc(-c2cnn3ccc(-c4cccs4)nc23)n1` [Example 186, (S)-ethyl (4-((2-(diethylamino)propyl)carbamoyl)-6-(5-(thiophen-2-yl)pyrazolo[1,5-a]pyrimidin-3-yl)pyridin-2-yl)carbamate]: 0.23 nM; for `CCN(CC)[C@@H](C)CNC(=O)c1cc(NC(=O)OC(C)C)nc(-c2cnn3ccc(-c4cccs4)nc23)c1` [Example 187, (S)-isopropyl (4-((2-(diethylamino)propyl)carbamoyl)-6-(5-(thiophen-2-yl)pyrazolo[1,5-a]pyrimidin-3-yl)pyridin-2-yl)carbamate]: 0.27 nM.
Under `CCC(=O)Nc1cc(C(=O)NC[C@H](C)N(CC)CC)cc(-c2cnn3ccc(-c4cccs4)nc23)n1` [Example 188, (S)—N-(2-(diethylamino)propyl)-2-propionamido-6-(5-(thiophen-2-yl)pyrazolo[1,5-a]pyrimidin-3-yl)isonicotinamide] stands 0.43 nM.
Under `CCN(CC)[C@@H](C)CNC(=O)c1cc(NC(=O)C(C)C)nc(-c2cnn3ccc(-c4cccs4)nc23)c1` [Example 189, (S)—N-(2-(diethylamino)propyl)-2-isobutyramido-6-(5-(thiophen-2-yl)pyrazolo[1,5-a]pyrimidin-3-yl)isonicotinamide] stands 0.45 nM; under `CCN(CC)[C@@H](C)CNC(=O)c1cc(NC(=O)C2CC2)nc(-c2cnn3ccc(-c4cccs4)nc23)c1` [Example 190, (S)-2-(cyclopropanecarboxamido)-N-(2-(diethylamino)propyl)-6-(5-(thiophen-2-yl)pyrazolo[1,5-a]pyrimidin-3-yl)isonicotinamide], 0.16 nM.
Regarding `CCN(CC)[C@@H](C)CNC(=O)c1cc(NCC2(C)COC2)nc(-c2cnn3ccc(-c4cccs4)nc23)c1` [Example 191, (S)—N-(2-(diethylamino)propyl)-2-(((3-methyloxetan-3-yl)methyl)amino)-6-(5-(thiophen-2-yl)pyrazolo[1,5-a]pyrimidin-3-yl)isonicotinamide], the IC50 came to 0.2 nM.
The same measure for `CCN(CC)[C@@H](C)CNC(=O)c1cc(NCC2COC2)nc(-c2cnn3ccc(-c4cccs4)nc23)c1` [Example 192, (S)—N-(2-(diethylamino)propyl)-2-((oxetan-3-ylmethyl)amino)-6-(5-(thiophen-2-yl)pyrazolo[1,5-a]pyrimidin-3-yl)isonicotinamide]: 141 nM; for `CCN(CC)[C@@H](C)CNC(=O)c1cc(NC2COC2)nc(-c2cnn3ccc(-c4cccs4)nc23)c1` [Example 193, (S)—N-(2-(diethylamino)propyl)-2-(oxetan-3-ylamino)-6-(5-(thiophen-2-yl)pyrazolo[1,5-a]pyrimidin-3-yl)isonicotinamide]: 83.2 nM.
Under `CCN(CC)[C@@H](C)CNC(=O)c1cc(-c2cnn3ccc(-c4cccs4)nc23)nc(N2CC(NC(=O)c3ncco3)C2)c1` [Example 194, (S)—N-(1-(4-((2-(diethylamino)propyl)carbamoyl)-6-(5-(thiophen-2-yl)pyrazolo[1,5-a]pyrimidin-3-yl)pyridin-2-yl)azetidin-3-yl)oxazole-2-carboxamide] stands 0.19 nM; under `CCN(CC)[C@@H](C)CNC(=O)c1cc(-c2cnn3ccc(-c4cccs4)nc23)nc(N2CC(NC(=O)N(C)C)C2)c1` [Example 195, (S)—N-(2-(diethylamino)propyl)-2-(3-(3,3-dimethylureido)azetidin-1-yl)-6-(5-(thiophen-2-yl)pyrazolo[1,5-a]pyrimidin-3-yl)isonicotinamide], 0.28 nM.
The same measure for `CCN(CC)[C@@H](C)CNC(=O)c1cc(-c2cnn3ccc(-c4cccs4)nc23)nc(N2CC(NC(=O)C3CC3)C2)c1` [Example 196, (S)-2-(3-(cyclopropanecarboxamido)azetidin-1-yl)-N-(2-(diethylamino)propyl)-6-(5-(thiophen-2-yl)pyrazolo[1,5-a]pyrimidin-3-yl)isonicotinamide]: 0.22 nM; for `CCN(CC)[C@@H](C)CNC(=O)c1cc(-c2cnn3ccc(-c4cccs4)nc23)nc(N2CC(NS(C)(=O)=O)C2)c1` [Example 197, (S)—N-(2-(diethylamino)propyl)-2-(3-(methylsulfonamido)azetidin-1-yl)-6-(5-(thiophen-2-yl)pyrazolo[1,5-a]pyrimidin-3-yl)isonicotinamide]: 0.09 nM; for `CCN(CC)[C@@H](C)CNC(=O)c1cc(-c2cnn3ccc(-c4cccs4)nc23)nc(N2CC(NC(C)=O)C2)c1` [Example 198, (S)-2-(3-acetamidoazetidin-1-yl)-N-(2-(diethylamino)propyl)-6-(5-(thiophen-2-yl)pyrazolo[1,5-a]pyrimidin-3-yl)isonicotinamide]: 0.15 nM.

Usually IC50 stands for the concentration needed to halve the response being measured.
